Experimental data taken from patent US12281121B2, “N-containing heteroaryl derivative and pharmaceutical composition comprising same as active ingredient for prevention or treatment of cancer” (VORONOI Inc., priority 2019, dated 2025).

Key:
Assay in all cases: ScanMAX Kinase analysis panel (DiscoverX)
Format in all cases: binding
KIT(A829P) = biological target: T1, KIT(A829P) (Homo sapiens, UniProt P10721, A829P); conditions: read-out: adjusted percentage (% control)
T1 construct: purchased DiscoverX ScanMAX Kinase analysis panel
T1 sequence (P10721 26-976 A829P): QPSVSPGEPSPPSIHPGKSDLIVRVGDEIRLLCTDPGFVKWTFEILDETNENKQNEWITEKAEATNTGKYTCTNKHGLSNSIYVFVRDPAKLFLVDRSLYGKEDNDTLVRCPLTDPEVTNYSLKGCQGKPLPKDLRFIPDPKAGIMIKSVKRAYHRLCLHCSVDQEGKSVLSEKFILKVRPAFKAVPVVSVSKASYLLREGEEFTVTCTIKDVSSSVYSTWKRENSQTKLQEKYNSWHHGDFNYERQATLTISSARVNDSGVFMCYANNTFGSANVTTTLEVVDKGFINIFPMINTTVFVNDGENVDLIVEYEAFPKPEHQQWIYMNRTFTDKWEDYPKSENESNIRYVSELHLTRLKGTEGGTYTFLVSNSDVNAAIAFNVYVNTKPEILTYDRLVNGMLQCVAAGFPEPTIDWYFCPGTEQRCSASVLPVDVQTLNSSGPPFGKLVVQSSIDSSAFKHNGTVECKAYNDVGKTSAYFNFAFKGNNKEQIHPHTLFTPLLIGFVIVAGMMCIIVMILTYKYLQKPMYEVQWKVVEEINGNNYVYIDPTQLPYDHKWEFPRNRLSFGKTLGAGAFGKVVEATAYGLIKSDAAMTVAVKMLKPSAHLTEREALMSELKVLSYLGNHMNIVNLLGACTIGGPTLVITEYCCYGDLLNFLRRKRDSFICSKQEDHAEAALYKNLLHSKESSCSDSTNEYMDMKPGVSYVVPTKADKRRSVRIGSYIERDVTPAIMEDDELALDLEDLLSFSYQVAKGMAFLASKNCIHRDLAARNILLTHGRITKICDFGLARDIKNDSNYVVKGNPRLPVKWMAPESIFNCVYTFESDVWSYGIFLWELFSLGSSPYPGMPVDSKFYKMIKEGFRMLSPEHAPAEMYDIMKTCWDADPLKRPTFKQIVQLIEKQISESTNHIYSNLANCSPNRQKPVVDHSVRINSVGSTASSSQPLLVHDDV
Method: (§1) The following experiment was performed in order to evaluate the inhibitory activity of the compound according to the present invention against more enzymes. Specifically, for Examples 1 and 3 selected among the Example compounds of the present invention, the enzyme (kinase) selectivity was set to be measured by commissioning DiscoverX, and an experiment was conducted using a ScanMAX™ Kinase analysis panel. In this case, the concentration of the drug treated with the enzyme was set to 1 μM in DMSO, the adjusted percentage (% control) was determined in the same manner as in the following Equation 1, and the results are shown in the following Table 3. (Example compound−Positive control)/(Negative control−Positive control)×100 [Equation 1]
(§2) In addition, the enzyme selectivity of the present invention was determined to be active against the corresponding enzyme when the adjusted percentage was <35% (that is, less than 35%).

[1] = biological target: T2, ABL1(H396P)-phosphorylated (Homo sapiens, UniProt P00519, H396P); conditions: read-out: adjusted percentage (% control)
T2 construct: purchased DiscoverX
Method: as §1, §2

FLT3(D835H) = biological target: T3, FLT3(D835H) (Homo sapiens, UniProt P36888, D835H); conditions: read-out: adjusted percentage (% control)
T3 construct: purchased DiscoverX ScanMAX Kinase analysis panel
Method: as §1, §2

TRKA = biological target: T4, TRKA (Homo sapiens, UniProt P04629); conditions: read-out: adjusted percentage (% control)
T4 construct: purchased DiscoverX ScanMAX Kinase analysis panel
T4 sequence (P04629 33-796): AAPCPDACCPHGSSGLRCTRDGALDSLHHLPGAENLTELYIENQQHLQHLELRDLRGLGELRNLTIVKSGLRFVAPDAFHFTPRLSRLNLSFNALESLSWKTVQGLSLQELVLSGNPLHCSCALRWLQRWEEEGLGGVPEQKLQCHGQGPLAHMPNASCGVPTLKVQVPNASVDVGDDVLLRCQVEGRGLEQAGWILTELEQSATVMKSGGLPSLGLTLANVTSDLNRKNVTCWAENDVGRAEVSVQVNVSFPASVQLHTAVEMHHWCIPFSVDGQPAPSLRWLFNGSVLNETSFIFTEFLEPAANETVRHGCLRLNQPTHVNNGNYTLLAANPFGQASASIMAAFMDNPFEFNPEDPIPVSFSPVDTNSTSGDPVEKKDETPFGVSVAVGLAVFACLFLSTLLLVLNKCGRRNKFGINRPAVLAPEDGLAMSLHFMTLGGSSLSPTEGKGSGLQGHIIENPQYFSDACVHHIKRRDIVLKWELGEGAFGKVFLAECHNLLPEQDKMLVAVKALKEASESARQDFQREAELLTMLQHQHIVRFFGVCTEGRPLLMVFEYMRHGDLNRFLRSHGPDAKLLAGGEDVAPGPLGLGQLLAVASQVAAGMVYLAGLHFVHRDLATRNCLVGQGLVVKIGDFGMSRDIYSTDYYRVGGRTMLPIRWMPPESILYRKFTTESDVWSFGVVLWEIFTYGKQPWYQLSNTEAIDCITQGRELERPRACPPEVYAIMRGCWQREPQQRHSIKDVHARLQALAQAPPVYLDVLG
Method: as §1, §2

[2] = biological target: T5, JAK1(JH2domain-pseudokinase) (Homo sapiens, UniProt P23458); conditions: read-out: adjusted percentage (% control)
T5 construct: JAK1(JH2domain-pseudokinase); purchased DiscoverX ScanMAX Kinase analysis panel
T5 sequence (P23458 583-855 limits assumed): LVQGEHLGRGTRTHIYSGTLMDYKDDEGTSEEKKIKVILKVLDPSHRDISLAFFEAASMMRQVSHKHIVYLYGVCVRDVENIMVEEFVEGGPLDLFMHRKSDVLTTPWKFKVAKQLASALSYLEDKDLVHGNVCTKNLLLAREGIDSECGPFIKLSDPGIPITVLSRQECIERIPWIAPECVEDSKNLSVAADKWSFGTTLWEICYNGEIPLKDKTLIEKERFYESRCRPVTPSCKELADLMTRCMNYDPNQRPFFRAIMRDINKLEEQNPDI
Method: as §1, §2

FRK = biological target: T6, FRK (Homo sapiens, UniProt P42685); conditions: read-out: adjusted percentage (% control)
T6 construct: purchased DiscoverX ScanMAX Kinase analysis panel
Method: as §1, §2

YES = biological target: T7, YES (Homo sapiens, UniProt P07947); conditions: read-out: adjusted percentage (% control)
T7 construct: purchased DiscoverX ScanMAX Kinase analysis panel
Method: as §1, §2

AXL = biological target: T8, AXL (Homo sapiens, UniProt P30530); conditions: read-out: adjusted percentage (% control)
T8 construct: purchased DiscoverX
T8 sequence (P30530 26-894): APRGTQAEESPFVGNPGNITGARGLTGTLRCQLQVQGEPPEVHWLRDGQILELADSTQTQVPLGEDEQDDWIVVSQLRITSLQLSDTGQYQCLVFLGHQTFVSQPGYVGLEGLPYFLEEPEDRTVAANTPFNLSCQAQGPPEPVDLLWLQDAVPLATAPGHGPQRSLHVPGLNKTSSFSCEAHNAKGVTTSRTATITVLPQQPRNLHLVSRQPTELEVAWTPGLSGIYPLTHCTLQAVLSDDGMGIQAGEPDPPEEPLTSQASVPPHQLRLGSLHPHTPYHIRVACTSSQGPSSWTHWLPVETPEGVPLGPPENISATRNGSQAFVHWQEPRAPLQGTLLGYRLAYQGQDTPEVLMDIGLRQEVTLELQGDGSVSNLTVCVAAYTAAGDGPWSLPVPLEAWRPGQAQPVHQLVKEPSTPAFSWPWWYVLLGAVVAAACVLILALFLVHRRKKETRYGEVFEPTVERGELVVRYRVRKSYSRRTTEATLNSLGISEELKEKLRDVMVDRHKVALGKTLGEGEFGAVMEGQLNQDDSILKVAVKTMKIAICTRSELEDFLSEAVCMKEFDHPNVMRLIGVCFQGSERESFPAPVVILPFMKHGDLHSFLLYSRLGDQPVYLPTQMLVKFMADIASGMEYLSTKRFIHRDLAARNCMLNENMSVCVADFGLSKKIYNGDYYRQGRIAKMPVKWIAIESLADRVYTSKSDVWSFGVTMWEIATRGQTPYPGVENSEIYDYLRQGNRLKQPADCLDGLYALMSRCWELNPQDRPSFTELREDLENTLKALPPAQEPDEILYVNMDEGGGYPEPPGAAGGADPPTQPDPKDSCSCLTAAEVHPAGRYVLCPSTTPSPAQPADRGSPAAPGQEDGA
Method: as §1, §2

TRKB = biological target: T9, TRKB (Homo sapiens, UniProt Q16620); conditions: read-out: adjusted percentage (% control)
T9 construct: purchased DiscoverX ScanMAX Kinase analysis panel
Method: as §1, §2

MEK3 = biological target: T10, MEK3 (Homo sapiens, UniProt P46734); conditions: read-out: adjusted percentage (% control)
T10 construct: purchased DiscoverX ScanMAX Kinase analysis panel
T10 sequence (P46734 whole entry): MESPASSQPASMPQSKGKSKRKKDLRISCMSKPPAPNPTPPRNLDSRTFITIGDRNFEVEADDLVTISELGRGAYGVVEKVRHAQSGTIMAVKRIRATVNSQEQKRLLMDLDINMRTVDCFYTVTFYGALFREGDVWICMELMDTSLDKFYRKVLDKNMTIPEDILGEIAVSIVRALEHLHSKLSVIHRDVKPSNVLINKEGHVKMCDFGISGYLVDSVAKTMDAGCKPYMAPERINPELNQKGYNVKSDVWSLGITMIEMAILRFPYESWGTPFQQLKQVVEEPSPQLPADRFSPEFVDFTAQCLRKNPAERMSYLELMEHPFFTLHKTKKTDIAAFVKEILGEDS
Method: as §1, §2

PLK4 = biological target: T11, PLK4 (Homo sapiens, UniProt O00444); conditions: read-out: adjusted percentage (% control)
T11 construct: purchased DiscoverX ScanMAX Kinase analysis panel
T11 sequence (O00444 whole entry): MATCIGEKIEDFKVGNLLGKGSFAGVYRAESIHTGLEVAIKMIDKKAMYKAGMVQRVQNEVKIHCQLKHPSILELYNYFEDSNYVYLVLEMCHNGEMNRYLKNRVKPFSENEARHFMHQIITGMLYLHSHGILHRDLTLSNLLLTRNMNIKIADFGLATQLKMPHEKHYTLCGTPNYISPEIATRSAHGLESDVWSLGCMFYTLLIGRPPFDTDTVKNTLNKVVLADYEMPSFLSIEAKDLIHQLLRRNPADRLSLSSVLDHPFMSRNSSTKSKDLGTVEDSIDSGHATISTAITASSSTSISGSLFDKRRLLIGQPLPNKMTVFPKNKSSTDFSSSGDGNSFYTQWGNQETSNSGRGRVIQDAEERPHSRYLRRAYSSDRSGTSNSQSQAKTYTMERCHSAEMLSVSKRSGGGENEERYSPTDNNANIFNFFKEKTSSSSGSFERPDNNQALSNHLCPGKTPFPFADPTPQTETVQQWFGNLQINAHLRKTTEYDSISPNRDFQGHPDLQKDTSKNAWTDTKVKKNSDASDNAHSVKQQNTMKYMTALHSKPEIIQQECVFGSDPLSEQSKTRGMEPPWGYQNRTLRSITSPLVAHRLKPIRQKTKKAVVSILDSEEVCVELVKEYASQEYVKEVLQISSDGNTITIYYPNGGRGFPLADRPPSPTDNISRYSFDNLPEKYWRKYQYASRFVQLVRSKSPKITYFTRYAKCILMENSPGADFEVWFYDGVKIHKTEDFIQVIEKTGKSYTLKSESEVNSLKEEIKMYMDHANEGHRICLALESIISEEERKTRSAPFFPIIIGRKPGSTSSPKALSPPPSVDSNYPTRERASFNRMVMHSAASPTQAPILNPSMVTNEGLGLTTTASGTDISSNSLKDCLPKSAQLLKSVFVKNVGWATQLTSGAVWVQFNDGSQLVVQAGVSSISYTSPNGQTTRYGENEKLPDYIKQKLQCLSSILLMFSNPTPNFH
Method: as §1, §2

MEK2 = biological target: T12, MEK2 (Homo sapiens, UniProt P36507); conditions: read-out: adjusted percentage (% control)
T12 construct: purchased DiscoverX ScanMAX Kinase analysis panel
Method: as §1, §2

ABL1-phosphorylated = biological target: T13, ABL1-phosphorylated (Homo sapiens, UniProt P00519); conditions: read-out: adjusted percentage (% control)
T13 construct: purchased DiscoverX
Method: as §1, §2

DDR2 = biological target: T14, DDR2 (Homo sapiens, UniProt Q16832); conditions: read-out: adjusted percentage (% control)
T14 construct: purchased DiscoverX
Method: as §1, §2

RET(M918T) = biological target: T15, RET(M918T) (Homo sapiens, UniProt P07949, M918T); conditions: read-out: adjusted percentage (% control)
T15 construct: purchased DiscoverX ScanMAX Kinase analysis panel
Method: as §1, §2

DLK = biological target: T16, DLK (Homo sapiens, UniProt Q12852); conditions: read-out: adjusted percentage (% control)
T16 construct: purchased DiscoverX
Method: as §1, §2

FLT3(ITD, D835V) = conditions: 1 μM
Method: as §1, §2

HCK = biological target: T17, HCK (Homo sapiens, UniProt P08631); conditions: read-out: adjusted percentage (% control)
T17 construct: purchased DiscoverX ScanMAX Kinase analysis panel
T17 sequence (P08631 whole entry): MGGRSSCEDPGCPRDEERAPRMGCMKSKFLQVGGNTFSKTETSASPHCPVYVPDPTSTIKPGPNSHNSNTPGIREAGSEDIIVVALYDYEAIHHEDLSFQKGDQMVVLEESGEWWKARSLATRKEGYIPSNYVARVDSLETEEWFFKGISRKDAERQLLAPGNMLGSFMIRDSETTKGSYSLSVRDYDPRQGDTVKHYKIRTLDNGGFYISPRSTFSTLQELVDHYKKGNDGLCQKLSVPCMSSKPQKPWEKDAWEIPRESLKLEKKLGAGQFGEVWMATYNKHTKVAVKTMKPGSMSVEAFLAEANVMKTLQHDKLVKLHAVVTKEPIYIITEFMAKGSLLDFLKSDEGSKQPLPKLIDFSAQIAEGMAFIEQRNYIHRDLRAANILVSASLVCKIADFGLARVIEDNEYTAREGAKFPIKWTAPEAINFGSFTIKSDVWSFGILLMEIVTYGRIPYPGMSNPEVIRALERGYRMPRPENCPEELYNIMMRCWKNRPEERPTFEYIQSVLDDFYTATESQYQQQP
Method: as §1, §2

CSNK2A2 = biological target: T18, CSNK2A2 (Homo sapiens, UniProt P19784); conditions: read-out: adjusted percentage (% control)
T18 construct: purchased DiscoverX
Method: as §1, §2

AURKC = biological target: T19, AURKC (Homo sapiens, UniProt Q9UQB9); conditions: read-out: adjusted percentage (% control)
T19 construct: purchased DiscoverX
Method: as §1, §2

MST1 = biological target: T20, MST1 (Homo sapiens, UniProt Q13043); conditions: read-out: adjusted percentage (% control)
T20 construct: purchased DiscoverX ScanMAX Kinase analysis panel
Method: as §1, §2

FLT3(D835V) = biological target: T21, FLT3(D835V) (Homo sapiens, UniProt P36888, D835V); conditions: read-out: adjusted percentage (% control)
T21 construct: purchased DiscoverX ScanMAX Kinase analysis panel
Method: as §1, §2

FLT3-autoinhibited = biological target: T22, FLT3-autoinhibited (Homo sapiens, UniProt P36888); conditions: read-out: adjusted percentage (% control)
T22 construct: purchased DiscoverX ScanMAX Kinase analysis panel
Method: as §1, §2

FLT3(ITD) = conditions: 1 μM
Method: as §1, §2

KIT(V559D) = biological target: T23, KIT(V559D) (Homo sapiens, UniProt P10721, V559D); conditions: read-out: adjusted percentage (% control)
T23 construct: purchased DiscoverX ScanMAX Kinase analysis panel
T23 sequence (P10721 26-976 V559D): as the sequence (P10721 26-976 A829P) above, with V534D, P804A counted along it
Method: as §1, §2

[3] = biological target: T24, TYK2(JH1domain-catalytic) (Homo sapiens, UniProt P29597); conditions: read-out: adjusted percentage (% control)
T24 construct: TYK2(JH1domain-catalytic); purchased DiscoverX ScanMAX Kinase analysis panel
T24 sequence (P29597 897-1176 limits assumed): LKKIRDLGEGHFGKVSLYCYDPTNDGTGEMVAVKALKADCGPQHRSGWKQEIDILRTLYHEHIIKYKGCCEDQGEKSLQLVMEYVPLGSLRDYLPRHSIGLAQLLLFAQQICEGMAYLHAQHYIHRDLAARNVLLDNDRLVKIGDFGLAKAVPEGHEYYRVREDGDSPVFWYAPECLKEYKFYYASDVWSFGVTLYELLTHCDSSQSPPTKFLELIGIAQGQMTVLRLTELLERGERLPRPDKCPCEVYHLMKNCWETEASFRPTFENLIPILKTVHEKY
Method: as §1, §2

FLT3(R834Q) = biological target: T25, FLT3(R834Q) (Homo sapiens, UniProt P36888, R834Q); conditions: read-out: adjusted percentage (% control)
T25 construct: purchased DiscoverX ScanMAX Kinase analysis panel
Method: as §1, §2

[4] = biological target: T26, JAK2(JH1domain-catalytic) (Homo sapiens, UniProt O60674); conditions: read-out: adjusted percentage (% control)
T26 construct: JAK2(JH1domain-catalytic); purchased DiscoverX ScanMAX Kinase analysis panel
Method: as §1, §2

BTK = biological target: T27, BTK (Homo sapiens, UniProt Q06187); conditions: read-out: adjusted percentage (% control)
T27 construct: purchased DiscoverX
Method: as §1, §2

LCK = biological target: T28, LCK (Homo sapiens, UniProt P06239); conditions: read-out: adjusted percentage (% control)
T28 construct: purchased DiscoverX ScanMAX Kinase analysis panel
Method: as §1, §2

FLT3(K663Q) = biological target: T29, FLT3(K663Q) (Homo sapiens, UniProt P36888, K663Q); conditions: read-out: adjusted percentage (% control)
T29 construct: purchased DiscoverX ScanMAX Kinase analysis panel
Method: as §1, §2

MERTK = biological target: T30, MERTK (Homo sapiens, UniProt Q12866); conditions: read-out: adjusted percentage (% control)
T30 construct: purchased DiscoverX ScanMAX Kinase analysis panel
Method: as §1, §2

FLT3(N841I) = biological target: T31, FLT3(N841I) (Homo sapiens, UniProt P36888, N841I); conditions: read-out: adjusted percentage (% control)
T31 construct: purchased DiscoverX ScanMAX Kinase analysis panel
Method: as §1, §2

FGFR1 = biological target: T32, FGFR1 (Homo sapiens, UniProt P11362); conditions: read-out: adjusted percentage (% control)
T32 construct: purchased DiscoverX ScanMAX Kinase analysis panel
Method: as §1, §2

RET(V804L) = biological target: T33, RET(V804L) (Homo sapiens, UniProt P07949, V804L); conditions: read-out: adjusted percentage (% control)
T33 construct: purchased DiscoverX ScanMAX Kinase analysis panel
Method: as §1, §2

[5] = biological target: T34, ABL1(Y253F)-phosphorylated (Homo sapiens, UniProt P00519, Y253F); conditions: read-out: adjusted percentage (% control)
T34 construct: purchased DiscoverX
Method: as §1, §2

Compound | remaining binding at 1 µM (KIT(A829P)) [%] | remaining binding at 1 µM [1] [%] | remaining binding at 1 µM (FLT3(D835H)) [%] | remaining binding at 1 µM (TRKA) [%] | remaining binding at 1 µM [2] [%] | remaining binding at 1 µM (FRK) [%] | remaining binding at 1 µM (YES) [%] | remaining binding at 1 µM (AXL) [%] | remaining binding at 1 µM (TRKB) [%] | remaining binding at 1 µM (MEK3) [%] | remaining binding at 1 µM (PLK4) [%] | remaining binding at 1 µM (MEK2) [%] | remaining binding at 1 µM (ABL1-phosphorylated) [%] | remaining binding at 1 µM (DDR2) [%] | remaining binding at 1 µM (RET(M918T)) [%] | remaining binding at 1 µM (DLK) [%] | adjusted percentage (% control) (FLT3(ITD, D835V)) [%] | remaining binding at 1 µM (HCK) [%] | remaining binding at 1 µM (CSNK2A2) [%] | remaining binding at 1 µM (AURKC) [%] | other results
COc1ccc(CN2C3CC2CN(c2ccc(-c4nc(Nc5cc(C)[nH]n5)c5occc5n4)cn2)C3)cn1 [Example 1, 2-(6-(6-((6-methoxypyridin-3-yl)methyl)-3,6-diazabicyclo[3.1.1]heptan-3-yl)pyridin-3-yl)-N-(5-methyl-1H-pyrazol-3-yl)furo[3,2-d]pyrimidin-4-amine] | 2.8 | 28 | 6.7 | 0 | 21 | 18 | 11 | 1.2 | 1.6 | 27 | 1.3 | 24 | 30 | 16 | 0.9 | 29 | 0 | 4.1 | 0 | 15 | remaining binding at 1 µM (MST1): 25%; remaining binding at 1 µM (FLT3(D835V)): 1.3%; remaining binding at 1 µM (FLT3-autoinhibited): 9.8%; adjusted percentage (% control) (FLT3(ITD)): 4.9%; remaining binding at 1 µM (KIT(V559D)): 34%; remaining binding at 1 µM [3]: 0.2%; remaining binding at 1 µM (FLT3(R834Q)): 23%; remaining binding at 1 µM [4]: 0.1%; remaining binding at 1 µM (BTK): 17%; remaining binding at 1 µM (LCK): 2.5%; remaining binding at 1 µM (FLT3(K663Q)): 2.2%; remaining binding at 1 µM (MERTK): 34%; remaining binding at 1 µM (FLT3(N841I)): 0%; remaining binding at 1 µM (FGFR1): 11%; remaining binding at 1 µM (RET(V804L)): 1.1%; remaining binding at 1 µM [5]: 20%
COc1ccc(CN2C3CC2CN(c2ccc(-c4nc(Nc5cc(C)[nH]n5)c5ccccc5n4)cn2)C3)cn1 [Example 3, 2-(6-(6-((6-methoxypyridin-3-yl)methyl)-3,6-diazabicyclo [3.1.1]heptan-3-yl)pyridin-3-yl)-N-(5-methyl-1H-pyrazol-3-yl)quinazolin-4-amine] | 11 | 21 | 2.7 | 0 | 2.9 | 34 | 3.8 | 0 | 2.1 | 4.9 | 1.2 | 17 | 15 | 30 | 0.25 | 19 | 0 | 3.2 | 0.3 | 21 | remaining binding at 1 µM (MST1): 30%; remaining binding at 1 µM (FLT3(D835V)): 0%; remaining binding at 1 µM (FLT3-autoinhibited): 11%; adjusted percentage (% control) (FLT3(ITD)): 1.2%; remaining binding at 1 µM (KIT(V559D)): 4.2%; remaining binding at 1 µM [3]: 5.3%; remaining binding at 1 µM (FLT3(R834Q)): 9.1%; remaining binding at 1 µM [4]: 0%; remaining binding at 1 µM (BTK): 16%; remaining binding at 1 µM (LCK): 1.8%; remaining binding at 1 µM (FLT3(K663Q)): 0.1%; remaining binding at 1 µM (MERTK): 6.2%; remaining binding at 1 µM (FLT3(N841I)): 0%; remaining binding at 1 µM (FGFR1): 4.3%; remaining binding at 1 µM (RET(V804L)): 0.4%; remaining binding at 1 µM [5]: 21%
